Assay results from ChEMBL document CHEMBL5576037, “Discovery of the first ataxia telangiectasia and Rad3-related (ATR) degraders for cancer treatment” (Eur J Med Chem, 2024).
Active and inactive are the calls of the source. The rule behind the calls is not given here.

Experiments:
NCM460 = assay: Cytotoxicity against human NCM460 cells; assay type: toxicity, cell-based
LoVo = assay: Induction of SIPA1L1 degradation in human LoVo cells at 1 uM incubated for 24 hrs by global proteomic profiling analysis; assay type: cell-based
[1] = Toxicity in BALB/c nude mouse xenografted with human LoVo cells assessed as body weight loss at 12.5 mg/kg, ip administered once daily for 15 days in presence of cisplatin; assay type: organism-based; conditions: in vivo, 360 h, time 15 day
[2] = target: Protein cereblon/Serine/threonine-protein kinase ATR (Homo sapiens, UniProt Q13535+Q96SW2); assay: In vivo PROTAC activity at CRBN/ATR in BALB/c nude mouse xenografted with human LoVo cells assessed as reduction in CHK1 phosphorylation at Ser345 residue administered intraperitoneally once daily for 15 days by Western blot analysis; assay type: functional, organism-based; conditions: dose 12.5-25 mg/kg, route ip, time 15.0 day

Activity [2]: Dose-Dependent Effect
Compound: C[C@@H]1COCCN1c1cc(C2([S@@](C)(=O)=NC(=O)CCc3cn(CCCCCCCC(=O)Nc4cccc5c4C(=O)N(C4CCC(=O)NC4=O)C5=O)nn3)CC2)nc(-c2ccnc3[nH]ccc23)n1 (some centres undefined)
Activity (NCM460): Non-Toxic | Activity (LoVo): Active | Activity [1]: Non-Toxic
